Test results from patent US20240408214A1, “NANOPARTICULATE MONOBENZONE FOR TREATING MELANOMA” (Northwestern University, priority 2021, published 2024).

Experiments:
[1] = test system: B16 melanoma cells; experiment: cells; details: Mus musculus, B16, 24 h, read-out: half-maximum cytotoxicity (IC50) concentration
Method: FIG. 8. […] Free MBEH or lauroyl-MBEH-loaded liposomes were added to B16 melanoma cells in culture. After 24 h, the viability among the remaining cells was measured at different nanoparticle concentrations.

[2] = test system: M14 melanoma cells; experiment: Change in viable cell numbers of M14 melanoma cells over the treatment period (FIG. 9); type: cell-based; details: 100 μM, 24 h, untreated cells gained 96% viable cells
Method: FIG. 9. First panel: Single cell functional proteomics data indicates functional heterogeneity when comparing the effects of free and nanoparticulate MBEH on cellular functions among live cells. Adherent M14 melanoma cells were incubated for 24 h with 100 μM of free MBEH (a), nanoparticulate monobenzone with lauroyl MBEH-loaded liposomes (b), MBEH-loaded MOF nanoparticles (c) or vehicle alone (d) before being harvested and loaded into individual wells of the respective Isocode chips (˜30,000 cells/sample) to measure the presence of phosphorylated proteins among individual, live cells by IsoPlexis functional proteomics. […] The decreases in cell-proliferation pathways are even more than those observed in cells that have been exposed to the free MBEH. The individual phosphoproteins measured (results are shown for ˜300 live, single cells per group) are categorized as shown in the legend. The most profound effect on cell signaling was found in presence of long-tailed MBEH. Over the treatment period, untreated cells gained 96% viable cells, whereas cell numbers were reduced by 45, 29 and 1% respectively in response to the free drug, MBEH-loaded MOFs and liposomes loaded with lauroyl MBEH, respectively. Functional heterogeneity among treatments was driven by PARP, P-eIF4α and ribosomal P-S6. Second panel: Viability changes of M14 melanoma cells shown between 24-48 h of treatment. […]

[3] = test system: B16-F10 tumors; experiment: CD8 T cell infiltration in B16-F10 tumors of mice pretreated topically (FIG. 6); type: in vivo, mouse; details: mice pretreated topically with 1.5 M MBEH vs without; n=3, p<0.01
[4] = test system: B16-F10 mouse melanoma cells; experiment: Tumor volumes in mice pretreated topically and challenged with B16-F10 cells (FIG. 1); type: in vivo; details: 1.5 M topical for 3 weeks before challenge with 5×10^5 B16-F10 cells; p<0.05
[5] = test system: TRP-1+ melanocytes in C57BL/6 skin; experiment: Detection of TRP-1+ melanocytes in topically treated mouse skin (FIG. 2); type: in vivo; details: 1.5 M topical for 6 weeks
Source text: FIG. 2. Melanocytes are undetectable in mouse skin topically treated with MBEH. TRP-1^+ melanocytes (arrows) are detected in control animals but not in C57BL/6 skin treated with 1.5 M MBEH for 6 weeks.

[6] = test system: Transfected HEK cells and B16-F10 melanoma cells; experiment: MTT cytotoxicity in HEK cells transfected with melanosomal enzymes and in B16-F10 cells (FIG. 3); type: cell-based; details: 250 μM, 24 h, MTT assay
Method: Transfected HEK cells and B16-F10 melanoma cells were exposed to 250 μM of MBEH for 24 h before cytotoxicity was measured via MTT assay.

[7] = cited from earlier work

Question: With `Oc1ccc(OCc2ccccc2)cc1` [MBEH, monobenzyl ether of hydroquinone] as the compound, how does the IC50 [1] read?
Answer: Its IC50 is ~500 µM.

Question: What about the “cell numbers reduced over the treatment period” value [2] of the same compound?
Answer: The value was 45%.

Question: And the “number of cytotoxic (CD8) T cells in tumors, enhancement after exposure” value [3]?
Answer: Its value is 4.7 fold.

Question: And the “tumor growth (tumor volumes)” value [4]?
Answer: The value was “prevents tumor growth”.

Question: And the “TRP-1+ melanocytes in skin” value [5]?
Answer: The value was “undetectable”.

Question: What about the “cytotoxicity mediated by melanosomal enzymes” value [6] of the same compound?
Answer: The value was “All enzymes but MART-1 can mediate cytotoxicity”.

Question: And the solubility in water [7]?
Answer: The solubility in water was “highly insoluble in water”.
